Key:
isolated rat adipocytes [1] = test: Glucose transport (2-deoxyglucose uptake) in isolated rat adipocytes after primary culture with leptin, basal and insulin-stimulated; type: cell-based; settings: for Glucose Transport, stimulation factor for insulin (stimulated/basal): Insulin concentration: 5 nM
Protocol: (§1) Adipocytes were prepared from the epididymal fat tissue of male Wistar rats (140-160 g, Hoechst AG breeding station, Kastengrund) by means of digesting with collagenase (Rodbell, 1964, J. Biol. Chem. 239, 375-380), washed twice with KRH (25 mM Hepes free acid, 25 mM Hepes sodium salt, 80 mM NaCl, 1 mM MgSO4, 2 mM CaCl2, 6 mM KCl, 1 mM sodium pyruvate, 0.5% BSA) and once with DMEM (Dulbecco's minimal essential medium), supplemented with 5.5 mM glucose, 20 mM Hepes (pH 7.4), 2% fetal calf serum, 1% BSA, 50 U of penicillin/ml, […], by means of flotation (800×g, 1 min, in small plastic tubes), and finally diluted to a volume of 20 ml of DMEM/g wet weight of the fat tissue (cell titer: approximately 2.5×10^5 cells/ml).
The adipocytes were incubated, at 37° C. for 15-18 h under an atmosphere of 5% CO2 and with gentle shaking, in supplemented (see above) DMEM in the presence of 100 nM phenylisopropyladenosine (4 ml of DMEM to 1 ml of cells, cell titer approximately 5×10^4 cell/ml, in 50 ml sterile polypropylene: tubes) and in the presence or absence of leptin. The adipocytes were subsequently washed three times with cold KRH and adjusted to a cell titer of approximately 3×10^5 cells/ml by adding 0.7 ml of glucose-free KRH to the cell layer which remained after the complete removal of the last washing solution. In order to determine the capacity of the adipocytes to be stimulated by insulin, and their sensitivity to insulin, following the primary culture, the washed adipocytes were incubated at 37° C. for 20 min in the absence or presence of human insulin (0.02-50 nM final concentration), and glucose transport or lipogenesis was then measured.
Glucose transport was measured as the specific uptake of the non-metabolizable glucose analog 2-deoxyglucose (Muller and Wied, 1993, Diabetes 42, 1852-1867). 50 μl of the adipocyte suspension in KRH, which suspension had or had not been preincubated with insulin (see above), were incubated, at 25° C. for 5 min, with 50 μl of KRH which was supplemented with 2-deoxy-D-[2,6-^3H]glucose (0.5 μCi, 0.2 mM). The incubation mixtures were transferred to thin soft-plastic centrifuge tubes, each of which already contained 200 μl of dinonyl phthalate oil, and immediately centrifuged (2,000×g, 30 sec). Using special shears, the tubes were severed within the oil layer (in the vicinity of the upper edge) and the upper halves of the tubes, together with the cell layers which had in each case been floated onto the oil layer, were transferred to scintillation vials. After 10 ml of scintillation fluid (water-based) had been added, the radioactivity associated with the cells was measured. In order to correct for 2-deoxyglucose which had become enclosed in the cell interstices, or had diffused into the cells, in a non-specific manner, the radioactivity of cells which had been preincubated with cytochalasin B (20 μM) was subtracted from the total cell-associated radioactivity of each individual incubation mixture (Gliemann et al., 1972, Biochim. Biophys. Acta 286, 1-9).
Isolated rat adipocytes were incubated for 15 h in primary culture in the presence or absence of increasing concentrations of leptin. […] The stimulation factor for insulin was calculated as the ratio between insulin-stimulated and basal activities. Each value represents the mean from two independent adipocyte cultures with activity being determined two or three times in each case.
The cells were then washed and tested for the stimulation of glucose transport by differing concentrations of insulin. Glucose transport activity is given as a “dpm value” of the 2deoxy-[^3H]glucose which is specifically associated with the cells. Each value represents the mean from two independent adipocyte cultures with the activity being determined four times in each case.

isolated rat adipocytes [2] = test: Antagonism of fragment 116-167 to the leptin effect: insulin-stimulated glucose transport; type: cell-based; settings: Leptin: 10 nM 17.5 h, no fragment; Insulin: 5 nM
Protocol: as §1, with “cells/ml). […]” for “cells/ml).”
Glucose transport was measured as the specific uptake of the non-metabolizable glucose analog 2-deoxyglucose (Muller and Wied, 1993, Diabetes 42, 1852-1867). […] After 10 ml of scintillation fluid (water-based) had been added, the radioactivity associated with the cells was measured. […]
Isolated rat adipocytes were incubated for 17.5 h in primary culture in the presence or absence of leptin (10 nM) and increasing concentrations of leptin fragment 116-167. […] The stimulation factor for insulin was calculated as the ratio between the insulin-stimulated activity and the basal activity. […]

Substance: Leptin
- glucose transport, uptake of 3H-labeled 2-deoxyglucose (isolated rat adipocytes [1]; leptin 5 nM 16.5 h, insulin 2 nM): 2140 dpm
- glucose transport, uptake of 3H-labeled 2-deoxyglucose (isolated rat adipocytes [1]; leptin 5 nM 16.5 h, insulin 5 nM): 2950 dpm
- glucose transport, uptake of 3H-labeled 2-deoxyglucose (isolated rat adipocytes [1]; leptin 5 nM 16.5 h, insulin 10 nM): 3682 dpm
- glucose transport, uptake of 3H-labeled 2-deoxyglucose (isolated rat adipocytes [1]; leptin 5 nM 16.5 h, insulin 50 nM): 4031 dpm
- glucose transport, uptake of 3H-labeled 2-deoxyglucose (isolated rat adipocytes [1]; leptin 5 nM 16.5 h, no insulin (basal)): 712 dpm
- Glucose Transport, stimulation factor for insulin (stimulated/basal) (isolated rat adipocytes [1]; leptin 10 nM 15 h): 3.5
- glucose transport, uptake of 3H-labeled 2-deoxyglucose (isolated rat adipocytes [1]; leptin 10 nM 16.5 h, insulin 0.02 nM): 773 dpm
- glucose transport, uptake of 3H-labeled 2-deoxyglucose (isolated rat adipocytes [1]; leptin 10 nM 16.5 h, insulin 0.05 nM): 802 dpm
- glucose transport, uptake of 3H-labeled 2-deoxyglucose (isolated rat adipocytes [1]; leptin 10 nM 16.5 h, insulin 0.1 nM): 856 dpm
- glucose transport, uptake of 3H-labeled 2-deoxyglucose (isolated rat adipocytes [1]; leptin 10 nM 16.5 h, insulin 0.2 nM): 941 dpm
- glucose transport, uptake of 3H-labeled 2-deoxyglucose (isolated rat adipocytes [1]; leptin 10 nM 16.5 h, insulin 0.5 nM): 1209 dpm
- glucose transport, uptake of 3H-labeled 2-deoxyglucose (isolated rat adipocytes [1]; leptin 10 nM 16.5 h, insulin 1 nM): 1573 dpm
- glucose transport, uptake of 3H-labeled 2-deoxyglucose (isolated rat adipocytes [1]; leptin 10 nM 16.5 h, insulin 2 nM): 2061 dpm
- glucose transport, uptake of 3H-labeled 2-deoxyglucose (isolated rat adipocytes [1]; leptin 10 nM 16.5 h, insulin 5 nM): 2476 dpm
- glucose transport, uptake of 3H-labeled 2-deoxyglucose (isolated rat adipocytes [1]; leptin 10 nM 16.5 h, insulin 10 nM): 2710 dpm
- glucose transport, uptake of 3H-labeled 2-deoxyglucose (isolated rat adipocytes [1]; leptin 10 nM 16.5 h, insulin 50 nM): 2967 dpm
- glucose transport, uptake of 3H-labeled 2-deoxyglucose (isolated rat adipocytes [1]; leptin 10 nM 16.5 h, no insulin (basal)): 755 dpm
- Glucose Transport, stimulation factor for insulin (stimulated/basal) (isolated rat adipocytes [1]; leptin 30 nM 15 h): 2.35
- glucose transport, uptake of 3H-labeled 2-deoxyglucose (isolated rat adipocytes [1]; leptin 30 nM 16.5 h, insulin 0.02 nM): 704 dpm
- glucose transport, uptake of 3H-labeled 2-deoxyglucose (isolated rat adipocytes [1]; leptin 30 nM 16.5 h, insulin 0.05 nM): 745 dpm
- glucose transport, uptake of 3H-labeled 2-deoxyglucose (isolated rat adipocytes [1]; leptin 30 nM 16.5 h, insulin 0.1 nM): 789 dpm
- glucose transport, uptake of 3H-labeled 2-deoxyglucose (isolated rat adipocytes [1]; leptin 30 nM 16.5 h, insulin 0.2 nM): 852 dpm
- glucose transport, uptake of 3H-labeled 2-deoxyglucose (isolated rat adipocytes [1]; leptin 30 nM 16.5 h, insulin 0.5 nM): 943 dpm
- glucose transport, uptake of 3H-labeled 2-deoxyglucose (isolated rat adipocytes [1]; leptin 30 nM 16.5 h, insulin 1 nM): 1183 dpm
- glucose transport, uptake of 3H-labeled 2-deoxyglucose (isolated rat adipocytes [1]; leptin 30 nM 16.5 h, insulin 2 nM): 1374 dpm
- glucose transport, uptake of 3H-labeled 2-deoxyglucose (isolated rat adipocytes [1]; leptin 30 nM 16.5 h, insulin 5 nM): 1782 dpm
- glucose transport, uptake of 3H-labeled 2-deoxyglucose (isolated rat adipocytes [1]; leptin 30 nM 16.5 h, insulin 10 nM): 1972 dpm
- glucose transport, uptake of 3H-labeled 2-deoxyglucose (isolated rat adipocytes [1]; leptin 30 nM 16.5 h, insulin 50 nM): 2114 dpm
- glucose transport, uptake of 3H-labeled 2-deoxyglucose (isolated rat adipocytes [1]; leptin 30 nM 16.5 h, no insulin (basal)): 688 dpm
- Glucose Transport, stimulation factor for insulin (stimulated/basal) (isolated rat adipocytes [1]; leptin 100 nM 15 h): 1.5
- glucose transport, uptake of 3H-labeled 2-deoxyglucose (isolated rat adipocytes [1]; leptin 100 nM 16.5 h, insulin 0.02 nM): 766 dpm
- glucose transport, uptake of 3H-labeled 2-deoxyglucose (isolated rat adipocytes [1]; leptin 100 nM 16.5 h, insulin 0.05 nM): 780 dpm
- glucose transport, uptake of 3H-labeled 2-deoxyglucose (isolated rat adipocytes [1]; leptin 100 nM 16.5 h, insulin 0.1 nM): 803 dpm
- glucose transport, uptake of 3H-labeled 2-deoxyglucose (isolated rat adipocytes [1]; leptin 100 nM 16.5 h, insulin 0.2 nM): 813 dpm
- glucose transport, uptake of 3H-labeled 2-deoxyglucose (isolated rat adipocytes [1]; leptin 100 nM 16.5 h, insulin 0.5 nM): 883 dpm
- glucose transport, uptake of 3H-labeled 2-deoxyglucose (isolated rat adipocytes [1]; leptin 100 nM 16.5 h, insulin 1 nM): 896 dpm
- glucose transport, uptake of 3H-labeled 2-deoxyglucose (isolated rat adipocytes [1]; leptin 100 nM 16.5 h, insulin 2 nM): 1034 dpm
- glucose transport, uptake of 3H-labeled 2-deoxyglucose (isolated rat adipocytes [1]; leptin 100 nM 16.5 h, insulin 5 nM): 1205 dpm
- glucose transport, uptake of 3H-labeled 2-deoxyglucose (isolated rat adipocytes [1]; leptin 100 nM 16.5 h, insulin 10 nM): 1451 dpm
- glucose transport, uptake of 3H-labeled 2-deoxyglucose (isolated rat adipocytes [1]; leptin 100 nM 16.5 h, insulin 50 nM): 1723 dpm
- glucose transport, uptake of 3H-labeled 2-deoxyglucose (isolated rat adipocytes [1]; leptin 100 nM 16.5 h, no insulin (basal)): 747 dpm
- insulin sensitivity of stimulation of glucose transport (isolated rat adipocytes [1]; leptin, basal values unaffected): drastically reduced
- Glucose Transport, stimulation factor for insulin (stimulated/basal) (isolated rat adipocytes [2]): 3.55

Source: patent publication US6399745B1, “Use of leptin antagonists for treating insulin resistance in type II diabetes” (Aventis Pharma Deutschland GmbH, priority 1996, dated 2002)
